According to patent US20260285859A1, “BI-CYCLIC PYRIMIDINE COMPOUNDS, METHODS AND USES THEREOF” (Zeno Management, Inc., priority 2023, published 2026):

Tests used:
[1] = target: WEE1 (Homo sapiens, UniProt P30291); experiment: LanthaScreen Eu Kinase Binding Assay, WEE1
Protocol: (§1) Binding of the tracer to the kinase is detected using a europium-labeled anti-GST antibody, which binds to the fused tag on the kinase protein. […] Inhibitor binding to the kinase competes with tracer binding, resulting in loss of FRET from the donor/acceptor pairs.
(§2) Kinase/Antibody Mixtures and Tracer are diluted to a 2× and 4× working concentration, respectively in this same buffer. […] 0% displacement (no known inhibitor) and 100% displacement (highest concentration of known inhibitor) controls were included on each plate for maximum and minimum Emission Ratio determination, respectively. Dasatinib was used for both PKMYT1 and WEE1 as the known inhibitor.
(§3) IC50 determination was performed using a non-linear regression, variable slope (four parameter), inhibitor v. response equation (Prism 9.0).

[2] = target: T1, PKMYT1 (Homo sapiens, UniProt Q99640); experiment: LanthaScreen Eu Kinase Binding Assay, PKMYT1
T1 sequence (Q99640 1-499): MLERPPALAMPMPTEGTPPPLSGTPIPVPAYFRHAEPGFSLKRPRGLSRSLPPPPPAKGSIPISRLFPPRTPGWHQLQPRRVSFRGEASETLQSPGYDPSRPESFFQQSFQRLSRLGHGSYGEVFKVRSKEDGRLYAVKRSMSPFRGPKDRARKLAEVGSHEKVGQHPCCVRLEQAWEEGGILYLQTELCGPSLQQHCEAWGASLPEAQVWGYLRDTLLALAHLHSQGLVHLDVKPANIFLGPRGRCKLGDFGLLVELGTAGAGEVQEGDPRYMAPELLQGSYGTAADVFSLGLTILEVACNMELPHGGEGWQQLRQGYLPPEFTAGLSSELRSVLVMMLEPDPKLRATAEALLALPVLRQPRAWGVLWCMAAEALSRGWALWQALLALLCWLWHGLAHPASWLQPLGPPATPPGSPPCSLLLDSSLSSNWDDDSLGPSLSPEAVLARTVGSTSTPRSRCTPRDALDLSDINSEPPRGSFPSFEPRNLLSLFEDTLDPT
Protocol: as §1, §2, §3

Chain of WEE1 (P30291 whole entry): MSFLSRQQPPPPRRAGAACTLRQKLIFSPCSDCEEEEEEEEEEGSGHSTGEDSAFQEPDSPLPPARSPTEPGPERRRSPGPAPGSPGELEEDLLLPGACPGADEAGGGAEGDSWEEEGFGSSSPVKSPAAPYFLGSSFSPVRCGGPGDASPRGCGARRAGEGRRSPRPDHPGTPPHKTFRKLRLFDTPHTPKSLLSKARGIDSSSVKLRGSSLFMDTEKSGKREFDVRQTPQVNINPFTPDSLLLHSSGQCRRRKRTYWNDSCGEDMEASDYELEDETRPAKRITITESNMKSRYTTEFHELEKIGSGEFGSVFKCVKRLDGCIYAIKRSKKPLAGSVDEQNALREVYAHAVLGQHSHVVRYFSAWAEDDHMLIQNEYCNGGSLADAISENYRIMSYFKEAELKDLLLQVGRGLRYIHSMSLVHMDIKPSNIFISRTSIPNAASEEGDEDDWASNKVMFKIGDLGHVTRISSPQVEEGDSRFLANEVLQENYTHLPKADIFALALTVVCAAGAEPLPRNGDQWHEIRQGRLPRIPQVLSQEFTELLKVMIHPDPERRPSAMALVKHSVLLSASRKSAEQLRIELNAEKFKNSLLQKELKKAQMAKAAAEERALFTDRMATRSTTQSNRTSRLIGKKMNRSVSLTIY

| Structure (SMILES) | IC50 [1] [nM] | IC50 [2] [nM] |
| --- | --- | --- |
| Cc1ccc(O)c(C)c1-c1nc(N2CC[C@@](C)(F)C2)cc2c(N)ncnc12 (single isomer, unassigned) [Compound 54-B] | 100 to 1000 | < 10 |
| Cc1ccc(O)c(C)c1-c1nc(N2CC[C@](C)(F)C2)cc2c(N)ncnc12 (single isomer, unassigned) [Compound 55-B] | 100 to 1000 | < 10 |
| Cc1ccc(O)c(C)c1-c1nc(C2=CCOCC2)cc2c(N)ncnc12 (single isomer, unassigned) [Compound 56-B] | 100 to 1000 | < 10 |
| C=C(C)c1cc2c(N)ncnc2c(-c2c(C)ccc(O)c2C)n1 (single isomer, unassigned) [Compound 57-B] | > 1000 | < 10 |
| Cc1ccc(O)c(C)c1-c1nc(N2CC[C@@H](F)C2)cc2c(N)ncnc12 (single isomer, unassigned) [Compound 58-B] | 100 to 1000 | < 10 |
| Cc1ccc(O)c(C)c1-c1nc(N2CC[C@H](F)C2)cc2c(N)ncnc12 (single isomer, unassigned) [Compound 59-B] | 100 to 1000 | < 10 |
| Cc1cc2c(N)ncnc2c(-c2c(C)ccc(O)c2C)n1 [Compound 17-B, (S)-3-(4-Amino-6-methylpyrido[3,4-d]pyrimidin-8-yl)-2,4-dimethylphenol] | > 1000 | 10 to 100 |
| Cc1ccc(O)c(C)c1-c1nc(-c2ccncc2)cc2c(N)ncnc12 [Compound 32-B, (S)-3-(4-amino-6-(pyridin-4-yl)pyrido[3,4-d]pyrimidin-8-yl)-2,4-dimethylphenol] | 100 to 1000 | < 10 |
| [2H]C([2H])([2H])N(c1cc2c(N)ncnc2c(-c2c(C)ccc(O)c2C)n1)C1CC1 [Compound 60-B, (S)-3-(4-amino-6-(cyclopropyl(methyl-d3)amino)pyrido[3,4-d]pyrimidin-8-yl)-2,4-dimethylphenol] | 100 to 1000 | < 10 |
| Cc1ccc(O)c(C)c1-c1nc(N(C)[C@H]2[C@@H]3COC[C@@H]32)cc2c(N)ncnc12 [Compound 61-B, 3-((S)-6-(((1R,5S,6r)-3-oxabicyclo[3.1.0]hexan-6-yl)(methyl)amino)-4-aminopyrido[3,4-d]pyrimidin-8-yl)-2,4-dimethylphenol] | > 1000 | < 10 |
| CO[C@H]1C[C@@H](N(C)c2cc3c(N)ncnc3c(-c3c(C)ccc(O)c3C)n2)C1 [Compound 62-B, 3-((S)-4-amino-6-(((1s,3R)-3-methoxycyclobutyl)(methyl)amino)pyrido[3,4-d]pyrimidin-8-yl)-2,4-dimethylphenol] | > 1000 | < 10 |
| CO[C@H]1C[C@H](N(C)c2cc3c(N)ncnc3c(-c3c(C)ccc(O)c3C)n2)C1 [Compound 62-D, 3-((S)-4-amino-6-(((1r,3S)-3-methoxycyclobutyl)(methyl)amino)pyrido[3,4-d]pyrimidin-8-yl)-2,4-dimethylphenol] | > 1000 | < 10 |
| [2H]C([2H])([2H])N(c1cc2c(N)ncnc2c(-c2c(C)ccc(O)c2C)n1)[C@H]1[C@@H]2COC[C@@H]21 [Compound 63-B, 3-((S)-6-(((1R,5S,6r)-3-oxabicyclo[3.1.0]hexan-6-yl)(methyl-d3)amino)-4-aminopyrido[3,4-d]pyrimidin-8-yl)-2,4-dimethylphenol] | > 1000 | < 10 |
| Cc1ccc(O)c(C)c1-c1cc(C2=CCOCC2)nc2c(N)ncnc12 [Compound 71-B, (R)-3-(4-amino-6-(3,6-dihydro-2H-pyran-4-yl)pyrido[3,2-d]pyrimidin-8-yl)-2,4-dimethylphenol] | 100 to 1000 | < 10 |
| Cc1ccc(O)c(C)c1-c1cc(NC2CC2)nc2c(N)ncnc12 [Compound 72-B, (R)-3-(4-amino-6-(cyclopropylamino)pyrido[3,2-d]pyrimidin-8-yl)-2,4-dimethylphenol] | > 1000 | < 10 |
| Cc1ccc(O)c(C)c1-c1cc(N(C)C)nc2c(N)ncnc12 [Compound 73-B, (R)-3-(4-Amino-6-(dimethylamino)pyrido[3,2-d]pyrimidin-8-yl)-2,4-dimethylphenol] | > 1000 | 10 to 100 |
| Cc1cc(-c2c(C)ccc(O)c2C)c2ncnc(N)c2n1 [Compound 74-B, (R)-3-(4-amino-6-methylpyrido[3,2-d]pyrimidin-8-yl)-2,4-dimethylphenol] | > 1000 | 10 to 100 |
| Cc1ccc(O)c(C)c1-c1cc(N(C)C2CC2)nc2c(N)ncnc12 [Compound 75-B, (R)-3-(4-amino-6-(cyclopropyl(methyl)amino)pyrido[3,2-d]pyrimidin-8-yl)-2,4-dimethylphenol] | > 1000 | 10 to 100 |
| Cc1ccc(O)c(C)c1-c1cc(C2CC2)nc2c(N)ncnc12 [Compound 76-B, (R)-3-(4-amino-6-cyclopropylpyrido[3,2-d]pyrimidin-8-yl)-2,4-dimethylphenol] | > 1000 | < 10 |
